Literature values in patent US5952465A, “Polypeptides that include conformation-constraining groups which flank a protein-protein interaction site” (Virginia Commonwealth University, priority 1998, dated 1999).
Where a SMILES comes first, the peptide text is derived from it.

System: receptors of sweet tasting papillae
Conditions: comparison substance

COC(=O)[C@H](Cc1ccccc1)NC(=O)[C@@H](N)CC(=O)O [aspartame] (H-Asp-Phe-OMe)
Sweetness relative to sugar: 160 times sweeter than sugar
